Measurements published in US10583123B2, “Method for the treatment of ATG4-related disorders” (National Tsing Hua University, priority 2017, dated 2020).

How the values were obtained:
[1] = system: HCT116 cells; assay: Caspase-3 activation (Caspase-Glo 3/7, immunoblotting of caspase-3 and PARP); format: cell-based, human; conditions: for caspase-3/7 activity and cleavage of caspase-3 and PARP: cells exposed to Dox (1 μM) alone or co-treated with tioconazole (40 μM)
Description: The cell lysates were used for immunoblotting with antibodies against the primary antibodies against ATG4B (A2981), LC3 (L7543), and ACTB (β-actin, A5441) (all purchased from Sigma-Aldrich). […] The membrane was scanned and analyzed for the protein expression level with the ChemiDoc XRS Imaging System (Bio-Rad).

[2] = molecular target: T1, ATG4B (Homo sapiens, UniProt Q9Y4P1); assay: LC3-PLA2 biochemical ATG4 reporter assay; conditions: FIG. 2 and 4
T1 sequence (Q9Y4P1 1-393): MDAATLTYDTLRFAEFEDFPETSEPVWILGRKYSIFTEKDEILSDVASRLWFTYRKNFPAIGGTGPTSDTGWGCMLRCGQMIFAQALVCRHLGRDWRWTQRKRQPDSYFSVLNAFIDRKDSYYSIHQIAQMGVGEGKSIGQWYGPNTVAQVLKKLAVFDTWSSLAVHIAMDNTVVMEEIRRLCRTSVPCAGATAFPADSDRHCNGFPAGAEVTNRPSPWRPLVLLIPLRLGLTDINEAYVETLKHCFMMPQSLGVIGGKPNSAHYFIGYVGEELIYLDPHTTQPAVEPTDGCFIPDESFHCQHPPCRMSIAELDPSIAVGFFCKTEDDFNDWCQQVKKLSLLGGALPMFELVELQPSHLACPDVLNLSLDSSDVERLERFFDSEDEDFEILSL
Excerpt: (§1) Quantitative results are shown in each panel (n=4). […] Bar: 100 μm.

[3] = system: HCT116 cells; assay: FACS cell cycle distribution, subG1 population; conditions: Dox 1 μM, 24 h
[4] = system: HCT116 and H4 cells expressing GFP-LC3 and RFP-Lamp1; conditions: Tc 6 h, confocal microscopy
Description: Human colorectal cancer HCT116 cells, glioblastoma H4 cells and breast cancer MDA-MB-231 from the ATCC were cultured in Dulbecco's modified Eagle's medium (DMEM) (Invitrogen, 12100-046) supplemented with 10% HyClone fetal bovine serum, penicillin (100 U/ml), and streptomycin (100 mg/ml). […] The treated cells were harvested to determine cell viability, apoptosis and immunoblotting.
The treated cells were fixed to observe the GFP-LC3 puncta via fluorescence microscopy.
(FIG. 23) HCT116 cells expressing GFP-LC3 and RFP-Lamp1 were treated with Tc for 6 h and fixed to observe colocalization of GFP-LC3 and RFP-Lamp1 with confocal microscopy. GFP-LC3 that had colocalized with or was surrounded by RFP-Lamp1 was identified as fusion between autophagosomes and lysosomes. The colocalization coefficients of images were quantified by the Ziess LSM 710 Software and are shown in the right panel. Bar: 20 m.

[5] = molecular target: T2, ATG4A (Homo sapiens, UniProt Q8WYN0); conditions: ATG4A 50 nM, 500 nM GABARAPL2-PLA2, 1 h, anti-Myc
T2 sequence (Q8WYN0 whole entry): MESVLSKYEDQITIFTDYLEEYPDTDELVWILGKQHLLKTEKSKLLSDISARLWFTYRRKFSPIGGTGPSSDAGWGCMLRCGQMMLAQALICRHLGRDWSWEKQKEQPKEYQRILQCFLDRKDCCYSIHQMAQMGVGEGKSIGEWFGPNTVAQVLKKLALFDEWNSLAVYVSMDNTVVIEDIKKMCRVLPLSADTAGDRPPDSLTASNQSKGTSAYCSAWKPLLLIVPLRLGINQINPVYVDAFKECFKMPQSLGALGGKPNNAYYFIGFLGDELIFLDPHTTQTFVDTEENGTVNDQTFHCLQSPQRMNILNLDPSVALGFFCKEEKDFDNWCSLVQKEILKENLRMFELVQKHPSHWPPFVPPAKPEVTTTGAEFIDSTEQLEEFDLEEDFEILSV
Description: (§2) The fluorescence intensity was kinetically monitored for 1 h to determine the ATG4 activity at room temperature with excitation and emission wavelengths of 485 and 530 nm, respectively.
(§3) For cleavage of GABARAPL2-PLA2 and caspase-3 activation, reaction mixtures or cell lysates were immunoblotted with antibodies against Myc (Roche, 11667149001), caspase-3 (Cell Signaling, 9661), PARP (Cell Signaling, 9532) and GAPDH (Cell Signaling, 5174).
(§4) (FIG. 5) ATG4B (1 nM) or (FIG. 6) ATG4A (50 nM) was mixed with 10-fold serially diluted Tc and 500 nM GABARAPL2-PLA2 for 1 h. The cleavage of GABARAPL2-PLA2 was validated with immunoblotting using an anti-Myc antibody.

[6] = system: H4, HCT116 and MDA-MB-231 cells; assay: Cell viability assay (CellTiter-Glo, cellular impedance); format: cell-based, human
Description: Cells were seeded into a 384-well plate overnight and treated with various drugs for 24 h. CellTiter-Glo (Promega, Madison, Wis., USA) was subsequently added to the treated cells, and the luminescence was read using a Fluoroskan Ascent FL reader (Thermo Fisher Scientific). Alternatively, the cell viability was monitored with an impedance-based instrument system (iCELLigence, ACEA Biosciences) for live cells. Briefly, H4 cells, HCT116 cells and MDA-MB-23 cells (4×10^4 cells/well) were seeded into electronic plates (E-Plates L8, ACEA Biosciences) with 400 μl of DMEM that contained 10% FBS and incubated for 30 h. […] The cellular impedance was periodically measured every 15 minutes until 80 h.
The cell viability was accessed with CellTiter-Glo.

[7] = molecular target: ATG4 (Homo sapiens, UniProt Q9Y4P1); conditions: HEK293T cells, FIG. 8
Description: For the ATG4 cleavable reporter assay in mammalian cells, the N-terminus (NLuc, residues 2-416) and C-terminus (CLuc, residues 398-550) of the luciferase gene were constructed in the expression vector pcDNA3.0. […] The luciferase activity was measured via One-Glo (Promega) according to the instruction manual. The non-cleavable mutant G120A was used to normalize the luminescent signal and determine the ATG4 activity.
Quantitative results are shown in each panel (n=4). […] (FIG. 7) The expression vector that encoded ATG4-cleavable luciferase was constructed with LC3 and a luciferase chimera gene, as shown in the schematic diagram (upper panel). HEK293T cells were transfected with scramble siRNA (siCtrl) or siRNA against ATG4B (siATG4B) for 48 h, followed by transfection with the ATG4 reporter vector for 24 h. The luciferase activity was measured with a luminescent reader (n=6), and the knockdown efficiency of ATG4B was determined using immunoblotting. […] The cleavage of LC3 and luciferase chimera protein by ATG4 in cells treated with Tc or untreated cells was verified via immunoblotting (upper panel).
Briefly, LC3 was constructed to split N-terminal and C-terminal luciferase in a mammalian expression vector, as indicated (FIG. 7).

[8] = system: H4 cells that stably express GFP-LC3; conditions: tioconazole 8 h
Description: The treated cells were fixed to observe the GFP-LC3 puncta via fluorescence microscopy. For protein colocalization, the H4 stable cells previously described were transfected with 1 μg plasmids Cherry tagged ATG4B or Lamp1-RFP (Addgene, 1817) for 36 h using Lipofectamine 2000 (Invitrogen).
(FIG. 17) Human glioma H4 cells that stably express GFP-LC3 were transfected with 5 nM non-targeting siRNA (Ctrl) or siRNA against ATG4 family members (ATG4) for 48 h, and the knockdown efficiency of ATG4 was verified with real time PCR. (FIG. 18) The knockdowned cells were fixed for observation via fluorescence microscopy, and the number of GFP-LC3 puncta is quantified in the right panel. […] The autophagy inhibitor CQ was used as a positive control. […] Representative autophagic vacuoles (AVs) are shown. […] (FIG. 22) The numbers of AVs for each optical section (9 m^2) are quantified (n=8). (FIG. 23) HCT116 cells expressing GFP-LC3 and RFP-Lamp1 were treated with Tc for 6 h and fixed to observe colocalization of GFP-LC3 and RFP-Lamp1 with confocal microscopy. […] The colocalization coefficients of images were quantified by the Ziess LSM 710 Software and are shown in the right panel. […] Cells were harvested for immunoblotting using antibodies against LC3, ATG4B or ACTB, and autophagy flux was quantified in untreated cells and cells treated with CQ based on changes in LC3-II. […]

[9] = system: HCT116 and H4 cells; conditions: Dox-treated cells, Tc 40 μM, JC-1
Description: For the MMP analysis, the cells were treated with JC-1 (5,5,6,6-tetrachloro-1,1,3,3-tetraethyl-benzimidazolylcarbocyanine iodide, Invitrogen) at 37° C. for 20 min prior to harvesting.

[10] = system: HCT116 spheroids; conditions: 48 h
Description: The cells (4000 cells/well) were seeded into an ultra-low attachment, 96-well plate (Costar®, USA) and grown overnight to form spheroid cells. […] The spheroid cells were stained with Calcein AM (1 μM) and Ethidium homodimer-1 (EthD-1, 2 μM) (LIVE/DEAD® Viability/Cytotoxicity Kit, ThermoFisher Scientific) for 30 minutes. The live (green) and dead (red) spheroid cells were imaged via fluorescence microscopy and quantitated using a Fluoroskan Ascent FL reader (Thermo Fisher Scientific) with excitation at 485 nm and emissions at 530 nm and 645 nm for calcein AM and EthD-1, respectively.
(FIG. 44) HCT116 cells were cultured in an ultra-low attachment dish for 24 h to form spheres. […] Scale bar: 400 μm. (FIG. 45) The relative sphere volume was quantified using DMSO-treated cells as the normalized control. (FIG. 46) HCT116 sphere-forming cells treated as (A) were lysed to measure ATP levels and assess cell viability. […] The viable and dead spheres were imaged with a LIVE/DEAD staining kit. The knockdown efficiency of ATG genes was verified by immunoblotting (left panel) (FIG. 48) The red fluorescence of the spheres in FIG. 47 was quantitated with a reader to assess the dead cell population (n=6).

[11] = molecular target: T1, ATG4B; assay: biochemical
Description: as §2, §3, §4

[12] = system: HCT116 xenograft tumors
Description: Human colorectal cancer HCT116 cells (2×10^6) were mixed with Matrigel (1:1) and subcutaneously implanted into six-week old immunodeficient mice (nu/nu, female). […] The tumor size in each mouse was measured every 3 to 4 days with vernier calipers, and the tumor volumes were calculated using the formula (larger diameter)×(smaller diameter)2×7π/6. Tumors were further cut from euthanized mice and embedded in paraffin. […] The protein levels in the tumor sections were determined using the UltraVision™ Quanto Detection System HRP DAB (Thermo Scientific) and observed under microscopy.
The tumor volume (circle) in each mouse was measured every 3 to 4 days (5 per group). The p values were determined with an ANOVA. […] The quantified results were obtained from at least 1500 cells and are shown in the right panel. p>0.05; *p<0.05; **p<0.01; ***p<0.001.

[13] = molecular target: T1, ATG4B; assay: ATG4B reporter yeast cell-based assay; conditions: ATG4 reporter yeast cells, FIG. 2
Description: as §1
FIGS. 55-58 show the characterization of yeast based ATG4B reporter assay for hts. (FIG. 55) Two-fold serial titrated yeast that harbored the LC3 reporter with wild type ATG4B (WT) or catalytic mutant (C74A) expression vector and reporter vector were seeded into a 384-well plate for 24 or 48 h. The substrate of […] X-gal (80 μg/ml) was included in the SD medium for the colorimetric assay. (FIG. 56) Beta-Glo was added into each well as (A) at 24 or 48 h to optimize the yeast concentration for the luminescent substrate. (FIG. 57) Yeast that harbored the wild type (WT) ATG4B and catalytic mutant (C74A) were used to determine the ratio of signal (WT)/background (C74A) and compare the sensitivity between the colorimetric and luminescent substrates. (FIG. 58) […] of yeast reporter cells (1.5×10^4 cells/ml) as previously described were seeded into a 384-well white plate for 24 h. Ten μl of the luminescent substrate Beta-Glo was added to each well, and the luminescent signal was read to determine the ATG4B activity. The luminescent signal between the wild type (WT) ATG4B and catalytic mutant (C/A) was used to determine the assay robustness (Z′ factor: 0.78).

[14] = system: H4, HCT116 or MDA-MB-231 cells
Description: The cells were briefly rinsed in PBS (Biological Industries, 02-023-1) and lysed with RIPA buffer (1% NP40 [MDBio, 101-9016-45-9], 50 mM Tris HCl, pH 7.5, 150 mM NaCl, 0.25% sodium deoxycholate [Sigma-Aldrich, D6750], 1% sodium dodecyl sulfate [SDS; Calbiochem, 428015], and protease inhibitor cocktail [Roche, 11873580001]). The cell lysates were used for immunoblotting with antibodies against the primary antibodies against ATG4B (A2981), LC3 (L7543), and ACTB (β-actin, A5441) (all purchased from Sigma-Aldrich). The differential accumulations of LC3 in cells with and without CQ were used to quantitate the autophagic flux (Mizushima et al., 2010). […] The proteins were probed with an HRP-labeled secondary antibody (Santa Cruz, sc-2004 or sc-2005) and detected with an ECL reagent. The membrane was scanned and analyzed for the protein expression level with the ChemiDoc XRS Imaging System (Bio-Rad).
The autophagy inhibitor CQ was used as a positive control. […] (FIG. 24) HCT16 cells were transfected with siRNA (5 nM) for 66 h and then treated with CQ (20 μM) for 2 h. Cells were harvested for immunoblotting using antibodies against LC3, ATG4B or ACTB, and autophagy flux was quantified in untreated cells and cells treated with CQ based on changes in LC3-II. […] (FIG. 26) The autophagic flux was quantified as described in FIG. 25.

[15] = molecular target: ATG4B and LC3 complex (Homo sapiens, UniProt Q9Y4P1); conditions: HEK293T cells, flow cytometry
Description: The plasmids (1 μg/well) were transfected with lipofectamine 2000 transfection reagent (Life Technologies, 11668-027) into HEK293T cells in a 6-well plate for 24 h. The cells were imaged via fluorescence microscopy or harvested to quantify the fluorescence intensity via a flow cytometer (Becton Dickinson).
After overnight culture, the cells were fixed to observe Venus complementary under fluorescence microscopy (right panel). […] (FIG. 10) The transfected cells were treated with Tc for 8 h and fixed for flow cytometry to quantify Venus fluorescence using GFP as a counter assay.
The cells were fixed to determine Venus complementation with flow cytometry and quantitated with FlowJo. HEK 293T cells transfected with or without GFP expression vector were used as the blank and counter controls, respectively.

[16] = molecular target: T2, ATG4A; assay: biochemical
Description: as §2, §3, §4

[17] = system: HCT116 cells; conditions: Tc 40 μM, versus untreated cells
Description: HCT116 cells treated with T2 (40 μM), CQ (20 μM) for 8 h were rinsed with PBS once and fixed in 2% glutaraldehyde at room temperature for 30 min. The cells were harvested to postfix with 1% osmium tetroxide and stained with 2% uranyl acetate (Agar Scientific) at room temperature for 1 h. The cell pellets were embedded to obtain 80 nm sections with a diamond knife. The sections were stained with 2% uranyl acetate and 0.3% lead citrate (Agar Scientific) and imaged with a JEM1400 PLUS transmission electron microscope (JEOL).
The autophagy inhibitor CQ was used as a positive control. Bar: 20 μm. […] Representative autophagic vacuoles (AVs) are shown. Arrowhead: autophagosome. Bar: 200 nm. (FIG. 22) The numbers of AVs for each optical section (9 m^2) are quantified (n=8).

[18] = molecular target: T1, ATG4B; conditions: ATG4B 1 nM, 500 nM GABARAPL2-PLA2, 1 h, anti-Myc
Description: as §2, §3, §4

[19] = tioconazole-treated mice, immunohistochemistry

## COc1cccc2c1C(=O)c1c(O)c3c(c(O)c1C2=O)C[C@@](O)(C(=O)CO)C[C@@H]3O[C@H]1C[C@H](N)[C@H](O)[C@H](C)O1 [Dox, Doxorubicin]
[1]
  caspase-3/7 activity and cleavage of caspase-3 and PARP: significantly elevated

## Clc1ccc(COC(Cn2ccnc2)c2ccc(Cl)cc2Cl)c(Cl)c1 (stereo not shown) [miconazole]
[2]
  inhibitory effect on ATG4B compared with tioconazole: failed to exhibit as good inhibitory effect on ATG4B as tioconazole
[3]
  cell death in combination with Dox (subG1 proportion): less potently synergized with Dox

## Clc1ccc(C(Cn2ccnc2)OCc2ccsc2Cl)c(Cl)c1 (stereo not shown) [tioconazole]
[4]
  co-localization of LC3 and LAMP1: decreased the co-localization of LC3 and LAMP1
[5]
  cleavage of GABARAPL2-PLA2 by ATG4A (immunoblotting): blocked the cleavage
[6]; cancer cell lines, tioconazole 40 μM combined with starvation or chemotherapeutic drugs
  cytotoxic effects of starvation and chemotherapy: enhanced the cytotoxic effects of starvation and chemotherapy
[6]; cancer cell lines, tioconazole 40 μM, cellular ATP levels or impedance
  cell viability: significantly reduced the cell viability
[7]
  luciferase activity in ATG4 reporter cells: increased the luciferase activity
[7]; immunoblotting
  cleavage of chimera luciferase in reporter cells: attenuated the cleavage of chimera luciferase
[8]
  GFP-LC3-II puncta: accumulation of GFP-LC3-II puncta
[9]
  mitochondrial membrane potential (MMP): reduction of mitochondrial membrane potential
[3]
  cell death in combination with Dox (subG1 proportion): synergistically increased cell death
[10]; HCT116 spheroids, Tc 40 μM
  size of tumor spheroids: significantly decreased the size of tumor spheroids
[10]; Tc 40 μM with Dox 1 μM
  cytotoxicity of Dox in spheroids (ATP levels, number of dead cells): enhanced the cytotoxicity of Dox
[10]; Tc 40 μM, Dox 1 μM, LIVE/DEAD staining
  Dox-induced cell death in spheres with scramble shRNA and shRNA against ATG4B: enhanced Dox-induced cell death
[11]
  IC50: 1.8 ± 0.16 µM
[1]
  caspase-3/7 activity and cleavage of caspase-3 and PARP: significantly elevated
[12]; Tc 60 mg/kg intraperitoneal every other day, day 21
  xenograft tumor weight: reduced the xenograft tumor weight
[12]; Tc 60 mg/kg with Dox 1 mg/kg intraperitoneal every other day
  sensitivity of xenograft tumors to Dox: sensitized xenograft tumors to Dox
[12]; [19]
  levels of cleaved caspase-3 in tumor tissues: significantly increased
  number of LC3 puncta in tumor tissues: significantly increased
[13]
  inhibition in the yeast cell-based assay: strong inhibition
[14]; Tc 6 h, with or without CQ 20 μM
  autophagic flux (LC3-II accumulation with and without CQ): significantly attenuated autophagic flux
[14]; cancer cells, starvation or CPT/Dox 24 h, immunoblotting
  LC3-II turnover and SQSTM1 degradation triggered by starvation and chemotherapeutic drugs: blocked LC3-II turnover and SQSTM1 degradation
[15]; Tc 8 h
  fluorescence from formation of the ATG4B and LC3 complex (BiFC): reduced the fluorescence
[15]
  GFP fluorescence (counter assay): did not affect GFP fluorescence
[16]
  IC50: 1.3 ± 0.18 µM
[17]
  number of autophagosomes (TEM): increased
[18]
  cleavage of GABARAPL2-PLA2 by ATG4B (immunoblotting): blocked the cleavage

## z-VAD-fmk
[6]; zVAD-FMK 50 μM pretreatment, Tc 40 μM, Dox 1 μM 24 h
  apoptotic effects of tioconazole and Dox after pretreatment (cell viability): rescued the apoptotic effects
[1]; zVAD-FMK 50 μM, cells treated with tioconazole and Dox
  caspase-3 activation after pretreatment: blocked caspase-3 activation
